The target in assay [1] is T1, Human recombinant NAPRT (Homo sapiens, UniProt Q6XQN6).
T1 construct: made in house
T1 sequence (Q6XQN6 1-538): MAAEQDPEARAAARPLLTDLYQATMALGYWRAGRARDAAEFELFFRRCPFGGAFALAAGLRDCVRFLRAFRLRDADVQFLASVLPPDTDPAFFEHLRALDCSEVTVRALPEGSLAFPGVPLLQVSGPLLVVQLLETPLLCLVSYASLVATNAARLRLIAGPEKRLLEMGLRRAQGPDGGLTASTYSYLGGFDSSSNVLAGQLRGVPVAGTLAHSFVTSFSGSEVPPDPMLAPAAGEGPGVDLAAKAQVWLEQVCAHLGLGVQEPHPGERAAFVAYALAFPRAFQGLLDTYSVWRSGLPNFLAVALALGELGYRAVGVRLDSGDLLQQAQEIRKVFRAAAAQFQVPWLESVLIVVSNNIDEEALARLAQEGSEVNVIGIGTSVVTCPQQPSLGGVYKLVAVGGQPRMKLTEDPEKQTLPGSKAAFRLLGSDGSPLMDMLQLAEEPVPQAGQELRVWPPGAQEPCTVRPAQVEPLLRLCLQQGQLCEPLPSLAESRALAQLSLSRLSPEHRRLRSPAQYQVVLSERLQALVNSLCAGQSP
Put plainly: HPLC-based NAPRT activity screening assay. In kind it is biochemical.

Assay [2] concerns NAPRT. Also on record: method as in PMID 35890155. As to conditions: cited from earlier work.
For assay [3], the target named is NAPRT. Details: method as in PMID 35890147. As to conditions: cited from earlier work.
For assay [4], the target named is NAPRT. Also on record: method as in PMID 4333776. As to conditions: cited from earlier work.
Assay [5] concerns the target NAPRT. Details: method as in PMID 4255930. The conditions noted are these: cited from earlier work.
[6] abbreviates: 1 mM compound, 0.2 mM NA, 0.4 mM PRPP.
Setting [7] is: 1 mM compound, 0.2 mM NA, 0.4 mM PRPP, read-out: % Inhibition.
Where [8] appears, read: 1 mM compound, 0.2 mM NA, 0.4 mM PRPP, read-out: % Inhibition (not active class).

Read-outs that look alike come from different tables or passages of the source. Where only a bound is given, the exact number is not on record here.

For the compound `Cc1nc2cc(NCc3cccc(CN)c3)ccc2n1C` [Compound 19, N-(3-(aminomethyl)benzyl)-1,2-dimethyl-1H-benzo[d]imidazol-5-amine], the “Effect on NAPRT catalytic activity (in words)” value (“Effect” below) in assay [1] was “inactive”. Moreover, the “-Fold Stimulation (not active class)” value in assay [1] (setting [6]) is reported as “- (Not active, it is referred to compounds showing less than 10% inhibition or less than 1.10-fold stimulation)”. Moreover, the figures for the inhibition at 1000 µM in assay [1] (setting [7]) and in assay [1] (setting [8]) were 0.6 ± 0.9% and less than 10%, respectively.

For `Cc1nc2cc(NCc3ccc(N)cc3)ccc2n1C` [Compound 28, N-(4-aminobenzyl)-1,2-dimethyl-1H-benzo[d]imidazol-5-amine], in assay [1] (setting [6]), the “-Fold Stimulation” value is 0 fold and the “-Fold Stimulation (not active class)” value is on record as “- (Not active, it is referred to compounds showing less than 10% inhibition or less than 1.10-fold stimulation)”. In assay [1] (setting [7]), the inhibition (usually the drop in the measured response relative to a control, in per cent) at 1000 µM amounted to 0%. The inhibition at 1000 µM in assay [1] (setting [8]) was less than 10%.

Consider `CC(C)(C)C(=O)OCCCn1cc(CCCN2C[C@@H](O)[C@@H](O)[C@@H]2NC(=O)c2ccccc2)nn1` [Compound 8], for which the IC50 (in general, the concentration that gives 50% inhibition) in assay [2] is 327 µM.

On to `O=C(NC(Sc1ccncn1)C(=O)c1ccccc1)c1ccccc1` (stereo not drawn) [Compound 14], for which, in assay [3], the Ki (in general, the equilibrium dissociation constant of an inhibitor or competing ligand from its target) was 89 µM.

In the case of `O=C(N[C@@H](C(=O)c1ccccc1)n1cnccc1=O)c1ccccc1` [Compound 13], the Ki in assay [3] was 2300 µM.

As for `CC(C)(C)C(=O)OCCCn1cc(CCCN2C[C@@H](O)[C@@H](O)[C@@H]2Cn2cc(-c3ccccc3)nn2)nn1` [Compound 9], the half-maximal inhibitory concentration (IC50) in assay [2] is 242 µM.

Regarding `O=C(O)c1cnccc1O` [Compound 15], the Ki in assay [3] is 308 µM.

Regarding `CC(=O)NCc1ccc(CNc2ccc3c(c2)nc(C)n3C)cc1` [Compound 25, N-(4-(((1,2-dimethyl-1H-benzo[d]imidazol-5-yl)amino)methyl)benzyl)acetamide], the “Effect” value in assay [1] is given as “inhibit NAPRT activity”. Further, the “-Fold Stimulation (not active class)” value in assay [1] (setting [6]) is “- (Not active, it is referred to compounds showing less than 10% inhibition or less than 1.10-fold stimulation)”. In assay [1] (setting [7]), the inhibition at 1000 µM came out at 13 ± 3.1%.

Regarding “N-(3-(((1,2-dimethyl-1H-benzo[d]imidazol-5-yl)amino)methyl)benzyl)acetamide [Compound 32]”, in assay [1], the “Effect” value was “NAPRT activators”. In assay [1] (setting [6]), the “% Inhibition (not active class)” value is listed as “- (Not active, it is referred to compounds showing less than 10% inhibition or less than 1.10-fold stimulation)” and the “-Fold Stimulation” value stood at 1.47 ± 0.07 fold.

As for `O=C(O)c1ccccc1O` [Compound 7, salicylic acid], the Ki in assay [4] is 160 µM.

On to `CCCCC1C(=O)N(c2ccccc2)N(c2ccccc2)C1=O` [Compound 4, phenylbutazone], for which the Ki in assay [4] is 160 µM.

For `O=C(O)c1cnsn1` [Compound 16], in assay [3], the Ki is 295 µM.

In the case of `Cc1cccc(Nc2ccccc2C(=O)O)c1C` [Compound 6, mefenamic acid], in assay [4], the Ki was 76 µM.

Consider `CC(=O)NCc1cccc(CNc2ccc3c(c2)nc(C)n3C)c1` [Compound 17, N-(3-(((1,2-dimethyl-1H-benzo[d]imidazol-5-yl)amino)methyl)benzyl)acetamide], for which, in assay [1] (setting [6]), the % Inhibition – broadly, how much of the control response was suppressed – came to 30.3 ± 6.0% and the “-Fold Stimulation (not active class)” value is given as “-^b (Not active, it is referred to compounds showing less than 10% inhibition or less than 1.10-fold stimulation)”. Also, the inhibition at 1000 µM in assay [1] (setting [7]) is 30%.

Regarding `CC(=O)NCc1ccc(CN(C)c2ccc3c(c2)nc(C)n3C)cc1` [Compound 29, N-(4-(((1,2-dimethyl-1H-benzo[d]imidazol-5-yl)(methyl)amino)methyl)benzyl) acetamide], the “Effect” value in assay [1] was “inhibit NAPRT activity”. In addition, the “-Fold Stimulation (not active class)” value in assay [1] (setting [6]) is listed as “- (Not active, it is referred to compounds showing less than 10% inhibition or less than 1.10-fold stimulation)”. The inhibition at 1000 µM in assay [1] (setting [7]) was found to be 12 ± 2.2%.

Take `CC(=O)Nc1cccc(CN(C)c2ccc3c(c2)nc(C)n3C)c1` [Compound 22, N-(3-(((1,2-dimethyl-1H-benzo[d]imidazol-5-yl)(methyl)amino)methyl)phenyl) acetamide]: the “-Fold Stimulation (not active class)” value in assay [1] (setting [6]) is recorded as “- (Not active, it is referred to compounds showing less than 10% inhibition or less than 1.10-fold stimulation)”. For the same compound, the inhibition at 1000 µM in assay [1] (setting [7]) is 5 ± 1.2%; in assay [1] (setting [8]), less than 10%.

For `Cc1nc2cc(N(C)Cc3cccc(CN)c3)ccc2n1C` [Compound 23, N-(3-(aminomethyl)benzyl)-N,1,2-trimethyl-1H-benzo[d]imidazol-5-amine], the “Effect” value in assay [1] is recorded as “NAPRT activators”. In addition, in assay [1] (setting [6]), the “-Fold Stimulation” value came to 1.14 ± 0.05 fold. Further, in assay [1] (setting [8]), the inhibition at 1000 µM is less than 10%.

On to `Cc1nc2cc(NCc3cccc(N)c3)ccc2n1C` [Compound 20, N-(3-aminobenzyl)-1,2-dimethyl-1H-benzo[d]imidazol-5-amine], for which the “Effect” value in assay [1] is “NAPRT activators”. Besides, the “-Fold Stimulation” value in assay [1] (setting [6]) was determined as 1.25 ± 0.05 fold. The inhibition at 1000 µM in assay [1] (setting [8]) was less than 10%.

As for `Cc1nc2cc(N(C)Cc3cccc(N)c3)ccc2n1C` [Compound 24, N-(3-aminobenzyl)-N,1,2-trimethyl-1H-benzo[d]imidazol-5-amine], the “Effect” value in assay [1] is listed as “NAPRT activators”. In addition, the “-Fold Stimulation” value in assay [1] (setting [6]) is 1.44 ± 0.04 fold. In addition, the inhibition at 1000 µM in assay [1] (setting [8]) was less than 10%.

For `O=C(O)c1cccnc1F` [Compound 2], the inhibition constant Ki in assay [5] was 280 µM.

`CC(=O)NCc1cccc(CN(C)c2ccc3c(c2)nc(C)n3C)c1` [Compound 21, N-(3-(((1,2-dimethyl-1H-benzo[d]imidazol-5-yl)(methyl)amino)methyl)benzyl) acetamide]: in assay [1] (setting [6]), the “-Fold Stimulation” value is given as 0 fold and the “-Fold Stimulation (not active class)” value is reported as “- (Not active, it is referred to compounds showing less than 10% inhibition or less than 1.10-fold stimulation)”. The inhibition at 1000 µM in assay [1] (setting [7]) amounted to 0%. For the same compound, the inhibition at 1000 µM in assay [1] (setting [8]) was less than 10%.

Turning to `CC(=O)Nc1ccc(CNc2ccc3c(c2)nc(C)n3C)cc1` [Compound 26, N-(4-(((1,2-dimethyl-1H-benzo[d]imidazol-5-yl)amino)methyl)phenyl)acetamide], the “-Fold Stimulation (not active class)” value in assay [1] (setting [6]) is on record as “- (Not active, it is referred to compounds showing less than 10% inhibition or less than 1.10-fold stimulation)”. For the same compound, the values for the inhibition at 1000 µM in assay [1] (setting [7]) and in assay [1] (setting [8]) were 1.3% and less than 10%, respectively.

As for `Cc1nc2cc(NCc3ccc(CN)cc3)ccc2n1C` [Compound 27, N-(4-(aminomethyl)benzyl)-1,2-dimethyl-1H-benzo[d]imidazol-5-amine], in assay [1] (setting [6]), the “-Fold Stimulation (not active class)” value was “- (Not active, it is referred to compounds showing less than 10% inhibition or less than 1.10-fold stimulation)”. The inhibition at 1000 µM is 1.9 ± 0.9% in assay [1] (setting [7]) and less than 10% in assay [1] (setting [8]).

Consider `CC(=O)Nc1ccc(CN(C)c2ccc3c(c2)nc(C)n3C)cc1` [Compound 30, N-(4-(((1,2-dimethyl-1H-benzo[d]imidazol-5-yl)(methyl)amino)methyl)phenyl) acetamide], for which, in assay [1] (setting [6]), the “-Fold Stimulation” value worked out at 0 fold and the “-Fold Stimulation (not active class)” value is recorded as “- (Not active, it is referred to compounds showing less than 10% inhibition or less than 1.10-fold stimulation)”. Besides, in assay [1] (setting [7]), the inhibition at 1000 µM is 0%. The inhibition at 1000 µM in assay [1] (setting [8]) is less than 10%.

Take “N-(3-(((1,2-dimethyl-1H-benzo[d]imidazol-5-yl)(methyl)amino)methyl)benzyl) acetamide [Compound 33]”: in assay [1] (setting [6]), the “% Inhibition (not active class)” value is on record as “- (Not active, it is referred to compounds showing less than 10% inhibition or less than 1.10-fold stimulation)”; the “-Fold Stimulation” value is recorded as 1.08 ± 0.03 fold; the “-Fold Stimulation (not active class)” value was “- (Not active, it is referred to compounds showing less than 10% inhibition or less than 1.10-fold stimulation)”.

Regarding `Cc1nc2cc(N(C)Cc3ccc(CN)cc3)ccc2n1C` [Compound 31, N-(4-(aminomethyl)benzyl)-N,1,2-trimethyl-1H-benzo[d]imidazol-5-amine], the “Effect” value in assay [1] was “NAPRT activators”. For the same compound, the “-Fold Stimulation” value in assay [1] (setting [6]) was found to be 1.58 ± 0.07 fold. In addition, the inhibition at 1000 µM in assay [1] (setting [8]) was less than 10%.

On to `O=C(Cn1c(=O)sc2ccccc21)Nc1cccc(C(=O)O)c1` [Compound 11], for which, in assay [2], the IC50 is 232 µM.

Turning to `CC(Oc1ccccc1Cl)C(=O)Nc1cccc(C(=O)O)c1` (stereo not drawn) [Compound 12], the IC50 in assay [2] was 265 µM.

On to `O=C(O)c1ccccc1Nc1cccc(C(F)(F)F)c1` [Compound 5, flufenamic acid], for which, in assay [4], the inhibition constant (Ki) was 46 µM.

Consider `NCc1cc2c(cc1Cl)OCO2` [Compound 10], for which, in assay [2], the 50% inhibitory concentration (IC50) is 160 µM.

Source of the values: paper PMC9967085, “Properly Substituted Benzimidazoles as a New Promising Class of Nicotinate Phosphoribosyltransferase (NAPRT) Modulators” (Pharmaceuticals, 2023).
